# Assay: recombinant UMI read abundance after kanamycin selection (control-corrected) (log10(CPM+1)); higher = more efficient recombination; extreme values may be limits of the assay; sequences stand for … in AGTGCAGAGAAAATCGGCCAGTTTTCTCTGCCTGCAGTCCGCATGCCGTGGGACCCCTTGGGTTCTAACCTGTTGCCTAGATTTATGCAGCGGACTGCCTTTCTCCCAAAGTGATAAACCGG…AGGTTGGTTTCACT; site = the 11-nt donor
# In short: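 Each donor and donor-binding-loop pair was tracked by a 12-nt UMI on a plasmid carrying a promoterless kanamycin gene. With a second plasmid supplying a fixed target and T7-inducible IS621 bridge recombinase, the pool was plated in Escherichia coli on IPTG (0.07 mM) plus kanamycin or unselected. Sequencing of recombinant UMIs across the donor–target junction gave counts expressed as log10(CPM+1) after replicate averaging and control-derived scaling.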
row,Sequence,recombinant UMI read abundance (log10)
1,TCAGAGACATGGACCGGTTTTCCCGGTAATCCGTATTTGCG (site TCAGAAACTCG),1.73
2,TCAGAGACATGGACCGGTTTTCCCGGTAATCCGTATTTGCG (site TCAGACACTCG),0.327
3,TCAGAGACATGGACCGGTTTTCCCGGTAATCCGTATTTGCG (site TCAGAGACTAG),0.65
4,TCAGAGACATGGACCGGTTTTCCCGGTAATCCGTATTTGCG (site TCAGAGACTCA),0.943
5,TCAGAGACATGGACCGGTTTTCCCGGTAATCCGTATTTGCG (site TCAGAGACTCC),0.0212
6,TCAGAGACATGGACCGGTTTTCCCGGTAATCCGTATTTGCG (site TCAGAGACTCG),2.3
7,TCAGAGACATGGACCGGTTTTCCCGGTAATCCGTATTTGCG (site TCAGAGACTCT),0.0281
8,TCAGAGACATGGACCGGTTTTCCCGGTAATCCGTATTTGCG (site TCAGAGACTGG),0.387
9,TCAGAGACATGGACCGGTTTTCCCGGTAATCCGTATTTGCG (site TCAGAGACTTG),1.84
10,TCAGAGACATGGACCGGTTTTCCCGGTAATCCGTATTTGCG (site TCAGAGCCTCG),0.0106
11,TCAGAGACATGGACCGGTTTTCCCGGTAATCCGTATTTGCG (site TCAGAGGCTCG),1.98
12,TCAGAGACATGGACCGGTTTTCCCGGTAATCCGTATTTGCG (site TCAGAGTCTCG),1.37
13,TCAGAGACATGGACCGGTTTTCCCGGTAATCCGTATTTGCG (site TCAGATACTCG),0.784
14,TCAGAGACATGGACCGGTTTTCCCGGTAATCCGTATTTGCG (site TCAGCGACTCG),0.00351
15,TCAGAGACATGGACCGGTTTTCCCGGTAATCCGTATTTGCG (site TCAGGGACTCG),0.0144
16,TCAGAGACATGGACCGGTTTTCCCGGTAATCCGTATTTGCG (site TCAGTGACTCG),0.0233
17,TCAGAGACATGGACCGGTTTTCCCGGTAATCCGTATTTGCG (site TCATAGACTCG),0.524
18,TCAGAGACATGGACCGGTTTTCCCGGTAATCCGTATTTGCG (site TCCGAGACTCG),0.462
19,TCAGAGACATGGACCGGTTTTCCCGGTAATCCGTATTTGCG (site TCGGAGACTCG),0.836

row,Sequence,recombinant UMI read abundance (log10)
1,TCAGAGACATGGACCGGTTTTCCCGGTAATCCGTATTTGCG (site TCTGAGACTCG),0.346
2,TCAGAGACATGGACCGGTTTTCCCGGTAATCCGTATTTGCG (site TGAGAGACTCG),0.498
3,TCAGAGACATGGACCGGTTTTCCCGGTAATCCGTATTTGCG (site TTAGAGACTCG),1.56
4,TCAGAGGCATGGACCGGTTTTCCCGGTAATCCGTATTTGCG (site TCAGAGACTCG),0.431
5,TCAGAGGCATGGACCGGTTTTCCCGGTAATCCGTATTTGCG (site TCAGAGCCTCG),0.0967
6,TCAGAGGCATGGACCGGTTTTCCCGGTAATCCGTATTTGCG (site TCAGAGGCTCG),1.26
7,TCAGAGGCATGGACCGGTTTTCCCGGTAATCCGTATTTGCG (site TCAGAGTCTCG),2.18
8,TCAGGTACATGGACCGGTTTTCCCGGTAATCCGTATTTGCA (site TCAGGTACTTG),2.02
9,TCAGGTGCATGGACCGGTTTTCCCGGTAATCCGTATTTGAT (site ACAGGTGCTAT),0
10,TCAGGTGCATGGACCGGTTTTCCCGGTAATCCGTATTTGAT (site CCAGGTGCTAT),1.06
11,TCAGGTGCATGGACCGGTTTTCCCGGTAATCCGTATTTGAT (site GCAGGTGCTAT),0.018
12,TCAGGTGCATGGACCGGTTTTCCCGGTAATCCGTATTTGAT (site TCAGGTGCTAT),1.74
13,TCAGGTTCATGGACCGGTTTTCCCGGTAATCCGTATTTGGA (site TCAGGTTCTTC),2.16
14,TCAGTATCATGGACCGGTTTTCCCGGTAATCCGTATTTGCA (site ACAGTATCTTG),1.93
15,TCAGTATCATGGACCGGTTTTCCCGGTAATCCGTATTTGCA (site CCAGTATCTTG),2.06
16,TCAGTATCATGGACCGGTTTTCCCGGTAATCCGTATTTGCA (site GCAGTATCTTG),0.463
17,TCAGTATCATGGACCGGTTTTCCCGGTAATCCGTATTTGCA (site TCAGTATCTTG),2.23
18,TCAGTATCATGGACCGGTTTTCCCGGTAATCCGTATTTGTA (site ACAGTATCTTG),0.377
19,TCAGTATCATGGACCGGTTTTCCCGGTAATCCGTATTTGTA (site TCAGTATCTTA),2.5
